This assay concerns the target T1, Monoacylglycerol lipase ABHD6 (Mus musculus, UniProt Q8R2Y0).
T1 sequence (Q8R2Y0 whole entry): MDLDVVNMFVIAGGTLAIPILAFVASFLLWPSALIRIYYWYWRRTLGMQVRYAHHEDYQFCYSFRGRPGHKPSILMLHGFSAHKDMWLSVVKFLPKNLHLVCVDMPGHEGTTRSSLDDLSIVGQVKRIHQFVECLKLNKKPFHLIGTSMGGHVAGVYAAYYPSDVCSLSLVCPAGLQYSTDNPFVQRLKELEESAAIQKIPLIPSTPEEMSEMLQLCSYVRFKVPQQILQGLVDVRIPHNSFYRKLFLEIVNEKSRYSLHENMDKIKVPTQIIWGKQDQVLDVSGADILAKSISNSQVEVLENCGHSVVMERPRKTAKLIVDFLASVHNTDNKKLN
The assay can be described thus: In Vitro Competitive Activity-Based Protein Profiling. Here is the method: Proteomes (mouse brain membrane fraction or cell lysates) (50 μL, 1.0 mg/mL total protein concentration) were preincubated with varying concentrations of inhibitors at 37° C. After 30 min, FP Rh (1.0 μL, 50 μM in DMSO) was added and the mixture was incubated for another 30 min at 37° C. Reactions were quenched with SDS loading buffer (50 μL-4×) and run on SDS-PAGE.

The term IC50 denotes the concentration that inhibits the measured activity by half. A low value points to inhibition by little substance.

`O=C(OC(C(F)(F)F)C(F)(F)F)N1CCC2(CCCN2Cc2ccc(OCCN3CCOCC3)cc2)CC1` [US10030020, Example 14] had an IC50 of more than 1000 nM.
